In ChEMBL document CHEMBL5226341, “Discovery of a Potent FLT3 Inhibitor (LT-850-166) with the Capacity of Overcoming a Variety of FLT3 Mutations” (J Med Chem, 2021):

How the values were obtained:
[1] = molecular target: Receptor-type tyrosine-protein kinase FLT3 (Homo sapiens, UniProt P36888, ITD); experiment: Inhibition of human FLT3-ITD mutant preincubated with enzyme for 20 mins followed by [gamma-33P]ATP addition and measured after 120 mins by filter binding method
MV4-11 [2] = experiment: Antiproliferative activity against human MV4-11 cells assessed as inhibition of cell growth incubated for 72 hrs by CellTiterGlo luminescent assay; assay type: functional, cell-based; conditions: MV4-11, 72 h
BaF3 [3] = experiment: Antiproliferative activity against mouse BaF3 cells harboring FLT3-ITD-F691L mutant assessed as residual cell viability at 0.1 uM incubated for 72 hrs by CellTiterGlo luminescent assay; assay type: functional
BaF3 [4] = experiment: Antiproliferative activity against mouse BaF3 cells harboring FLT3-ITD-F691L mutant assessed as residual cell viability at 10 nM incubated for 72 hrs by CellTiterGlo luminescent assay; assay type: functional
BaF3 [5] = experiment: Antiproliferative activity against mouse BaF3 cells harboring FLT3-ITD-F691L mutant assessed as reduction in cell viability incubated for 72 hrs by CellTiterGlo luminescent assay; assay type: functional, cell-based; conditions: BaF3, 72 h
BaF3 [6] = experiment: Antiproliferative activity against mouse BaF3 cells harboring FLT3-ITD-F691L mutant assessed as residual cell viability at 50 nM incubated for 72 hrs by CellTiterGlo luminescent assay; assay type: functional
[7] = Toxicity in BALB/c mouse xenografted with human MV4-11 cells assessed as mortality at 30 mg/kg, iv QD for 10 days; assay type: organism-based; conditions: in vivo, 240 h, time 10 day
MV4-11 [8] = experiment: Antitumor activity against human MV4-11 cells xenografted in BALB/c mouse assessed as tumor growth inhibition at 30 mg/kg, iv QD for 21 days by vernier caliper analysis; assay type: functional; conditions: MV4-11, 504 h, time 21 day, read-out: TGI
MV4-11 [9] = experiment: Antitumor activity against human MV4-11 cells xenografted in BALB/c mouse assessed as inhibition rate of tumor weight at 30 mg/kg, iv QD for 21 days by vernier caliper analysis; assay type: functional; conditions: MV4-11, 504 h, time 21 day
BaF3 [10] = experiment: cells; conditions: Mus musculus, BaF3, 72 h
Description: Antiproliferative activity against mouse BaF3 cells harboring FLT3-ITD-D835V mutant assessed as reduction in cell viability measured after 72 hrs by CellTiterGlo luminescent assay

BaF3 [11] = experiment: Antiproliferative activity against mouse BaF3 cells harboring FLT3-ITD mutant assessed as reduction in cell viability measured after 72 hrs by CellTiterGlo luminescent assay; assay type: functional, cell-based; conditions: BaF3, 72 h
[12] = Antiproliferative activity against mouse BaF3 cells assessed as reduction in cell viability measured after 72 hrs by CellTiterGlo luminescent assay; assay type: toxicity, cell-based
BaF3 [13] = experiment: Antiproliferative activity against mouse BaF3 cells harboring FLT3-ITD-Y842H mutant assessed as reduction in cell viability measured after 72 hrs by CellTiterGlo luminescent assay; assay type: functional, cell-based; conditions: BaF3, 72 h
BaF3 [14] = experiment: Antiproliferative activity against mouse BaF3 cells harboring FLT3-ITD-N676D mutant assessed as reduction in cell viability measured after 72 hrs by CellTiterGlo luminescent assay; assay type: functional, cell-based; conditions: BaF3, 72 h
BaF3 [15] = assay type: functional, cell-based; conditions: Mus musculus, BaF3, 72 h

Sequence of Receptor-type tyrosine-protein kinase FLT3 (P36888 whole entry, looked up, stated change not applied): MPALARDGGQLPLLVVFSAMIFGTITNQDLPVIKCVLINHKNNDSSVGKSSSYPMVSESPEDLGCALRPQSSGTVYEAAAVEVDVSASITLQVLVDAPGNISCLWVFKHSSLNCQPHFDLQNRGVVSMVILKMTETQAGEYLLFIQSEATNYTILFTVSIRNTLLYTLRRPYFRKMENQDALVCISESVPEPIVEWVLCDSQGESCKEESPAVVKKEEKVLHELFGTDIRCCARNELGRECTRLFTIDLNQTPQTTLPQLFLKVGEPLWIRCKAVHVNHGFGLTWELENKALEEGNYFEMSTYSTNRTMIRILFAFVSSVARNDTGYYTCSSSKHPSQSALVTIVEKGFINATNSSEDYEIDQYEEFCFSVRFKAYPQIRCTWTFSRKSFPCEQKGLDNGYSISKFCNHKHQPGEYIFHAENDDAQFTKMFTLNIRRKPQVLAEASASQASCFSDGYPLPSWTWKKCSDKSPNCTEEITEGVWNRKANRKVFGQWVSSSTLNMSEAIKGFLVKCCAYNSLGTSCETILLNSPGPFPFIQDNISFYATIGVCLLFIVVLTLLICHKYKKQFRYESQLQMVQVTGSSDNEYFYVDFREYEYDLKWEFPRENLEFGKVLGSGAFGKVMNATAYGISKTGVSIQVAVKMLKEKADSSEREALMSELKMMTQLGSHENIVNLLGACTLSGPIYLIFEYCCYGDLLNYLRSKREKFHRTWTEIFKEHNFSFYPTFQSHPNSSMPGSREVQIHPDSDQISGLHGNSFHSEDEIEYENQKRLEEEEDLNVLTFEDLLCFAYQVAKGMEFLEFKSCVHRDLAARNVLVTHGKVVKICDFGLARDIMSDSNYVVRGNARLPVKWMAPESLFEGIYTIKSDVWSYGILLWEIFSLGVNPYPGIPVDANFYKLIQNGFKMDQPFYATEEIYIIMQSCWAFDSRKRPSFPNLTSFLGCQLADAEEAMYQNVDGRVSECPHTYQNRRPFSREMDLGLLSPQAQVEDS

IC50 [1]	IC50 (MV4-11 [2])	SMILES	Activity (BaF3 [3])	Activity (BaF3 [4])	other results
0.85 nM	25.4 nM	CN1CCC(Nc2ccc(C(=O)Nc3cc(-c4ccc5ncn(Cc6ccccc6Cl)c5c4)[nH]n3)cc2)CC1	40.17%		
7.65 nM		CC(C)n1cnc2ccc(-c3cc(NC(=O)c4ccc(NC5CCN(C)CC5)cc4)n[nH]3)cc21			
3.58 nM		CN1CCC(Nc2ccc(C(=O)Nc3cc(-c4ccc5ncn(C6CC6)c5c4)[nH]n3)cc2)CC1			
	2.64 nM	CN1CCN(c2ccc(C(=O)Nc3cc(-c4ccc5ncn(Cc6c(Cl)cccc6Cl)c5c4)[nH]n3)cc2)CC1=O		104.57%	
	3.61 nM	O=C(Nc1cc(-c2ccc3ncn(Cc4c(Cl)cccc4Cl)c3c2)[nH]n1)c1ccc(N2CCOCC2)cc1		109.68%	
1.71 nM	6.38 nM	CN1CCN(Cc2ccc(NC(=O)c3n[nH]cc3Nc3ncnc4[nH]ccc34)cc2)CC1			IC50 (BaF3 [5]): 7.65 nM
	0.77 nM	CN1CCC(Nc2ccc(C(=O)Nc3cc(-c4ccc5ncn(Cc6c(Cl)cccc6Cl)c5c4)[nH]n3)cc2)CC1		104.29%	
	12.4 nM	CCN1CCN(c2ccc(C(=O)Nc3cc(-c4ccc5ncn(Cc6ccccc6Cl)c5c4)[nH]n3)cc2)CC1	1.72%	90.16%	Activity (BaF3 [6]): 19.95%; IC50 (BaF3 [5]): 29.2 nM
	12.5 nM	CCN1CCN(c2ccc(C(=O)Nc3cc(-c4ccc5ncn(Cc6cccc(F)c6Cl)c5c4)[nH]n3)cc2)CC1		101.05%	Activity (BaF3 [6]): 47.53%
		Nc1ccn([C@@H]2O[C@H](CO)[C@@H](O)[C@@H]2O)c(=O)n1 [CYTARABINE]			Activity [7]: Toxic; inhibition in vivo at 30 mg/kg (MV4-11 [8]): 66%; inhibition in vivo at 30 mg/kg (MV4-11 [9]): 50.6%
5.73 nM		CN1CCC(Nc2ccc(C(=O)Nc3cc(-c4ccc5ncn(C6CCOCC6)c5c4)[nH]n3)cc2)CC1			
	6.37 nM	COCCNc1ccc(C(=O)Nc2cc(-c3ccc4ncn(Cc5c(Cl)cccc5Cl)c4c3)[nH]n2)cc1		84.97%	
11.1 nM	99.3 nM	CN1CCC(Nc2ccc(C(=O)Nc3cc(-c4ccc5ncn(Cc6ccccc6)c5c4)[nH]n3)c(F)c2)CC1			
	3.25 nM	CCN1CCN(c2ccc(C(=O)Nc3cc(-c4ccc5ncn(Cc6c(Cl)cccc6Cl)c5c4)[nH]n3)cn2)CC1		102.56%	
1.14 nM	68.2 nM	CN1CCC(Nc2ccc(C(=O)Nc3cc(-c4ccc5ncn(C6CCCC6)c5c4)[nH]n3)cc2)CC1	97.57%		
3.88 nM		CN1CCC(Nc2ccc(C(=O)Nc3cc(-c4ccc5ncn([C@H]6CC[C@H](N)CC6)c5c4)[nH]n3)cc2)CC1			
3.22 nM	18.5 nM	CN1CCC(Nc2ccc(C(=O)Nc3cc(-c4ccc5ncn(Cc6cccc(F)c6)c5c4)[nH]n3)cc2)CC1	97.08%		
7.59 nM		CN1CCC(Nc2ccc(C(=O)Nc3cc(-c4ccc5ncn(C)c5c4)[nH]n3)cc2)CC1			
14.1 nM		CN1CCC(Nc2ccc(C(=O)Nc3cc(-c4ccc5nccnc5c4)[nH]n3)cc2)CC1			
	12.6 nM	CCN1CCN(c2ccc(C(=O)Nc3cc(-c4ccc5ncn(Cc6cc(F)ccc6Cl)c5c4)[nH]n3)cc2)CC1		107.7%	Activity (BaF3 [6]): 49.36%
8.34 nM	90.6 nM	CN1CCC(Nc2ccc(C(=O)Nc3cc(-c4ccc5ncn(Cc6ccccc6F)c5c4)[nH]n3)cc2)CC1	99.79%		
23.7 nM		CN1CCC(Nc2ccc(C(=O)Nc3cc(-c4cccc5c4ncn5C)[nH]n3)cc2)CC1			
10.3 nM		CN1CCC(Nc2ccc(C(=O)Nc3cc(-c4ccc5ncccc5c4)[nH]n3)cc2)CC1			
	2.78 nM	CN(C)CCN(C)c1ccc(C(=O)Nc2cc(-c3ccc4ncn(Cc5c(Cl)cccc5Cl)c4c3)[nH]n2)cc1		102.83%	
2.06 nM	75.6 nM	CN1CCC(Nc2ccc(C(=O)Nc3cc(-c4ccc5ccn(Cc6ccccc6)c5c4)[nH]n3)cc2)CC1			
3.59 nM	219 nM	CN1CCC(Nc2ccc(C(=O)Nc3cc(-c4ccc5ncn(Cc6ccc(Cl)cc6)c5c4)[nH]n3)cc2)CC1	101.73%		
1.42 nM	55.6 nM	CN1CCC(Nc2ccc(C(=O)Nc3cc(-c4ccc5ncn(Cc6ccsc6)c5c4)[nH]n3)cc2)CC1	108.58%		

IC50 [1]	IC50 (MV4-11 [2])	SMILES	Activity (BaF3 [3])	Activity (BaF3 [4])	other results
0.94 nM	29.7 nM	Cc1ccccc1Cn1cnc2ccc(-c3cc(NC(=O)c4ccc(NC5CCN(C)CC5)cc4)n[nH]3)cc21	86.49%		
	13.8 nM	O=C(Nc1cc(-c2ccc3ncn(Cc4ccccc4Cl)c3c2)[nH]n1)c1ccc(N2CCNCC2)cc1	14.55%		IC50 (BaF3 [5]): 60.9 nM
	9.02 nM	O=C(Nc1cc(-c2ccc3ncn(Cc4ccccc4Cl)c3c2)[nH]n1)c1ccc(N2CCOCC2)cc1	16.59%		IC50 (BaF3 [5]): 65.2 nM
4.96 nM	58.4 nM	CN1CCC(Nc2ccc(C(=O)Nc3cc(-c4ccc5c(c4)ncn5Cc4ccccc4)[nH]n3)cc2)CC1			
1.84 nM		CN1CCC(Nc2ccc(C(=O)Nc3cc(-c4ccc5ncn(Cc6ccccc6)c5c4)[nH]n3)cc2)CC1	96.22%		
397 nM	1700 nM	CN1CCC(C(=O)Nc2cc(-c3ccc4ncn(Cc5ccccc5)c4c3)[nH]n2)CC1			
12.9 nM	219 nM	O=C(Nc1cc(-c2ccc3ncn(Cc4ccccc4)c3c2)[nH]n1)c1ccccc1			
	2.61 nM	CCN1CCN(c2ccc(C(=O)Nc3cc(-c4ccc5ncn(Cc6c(F)cccc6Cl)c5c4)[nH]n3)cc2)CC1		101.37%	Activity (BaF3 [6]): 21.63%
213 nM		CN1CCC(Nc2ccc(C(=O)Nc3cc(-c4cccc5ncn(C)c45)[nH]n3)cc2)CC1			
	4.85 nM	CCN1CCN(c2ccc(C(=O)Nc3cc(-c4ccc5ncn(Cc6c(C)cccc6C)c5c4)[nH]n3)cc2)CC1		103.84%	Activity (BaF3 [6]): 4.57%
	2.26 nM	O=C(Nc1cc(-c2ccc3ncn(Cc4c(Cl)cccc4Cl)c3c2)[nH]n1)c1ccc(N2CC3CC2CN3)cc1 (stereo not given)		103.48%	
	12.6 nM	CCN1CCN(c2ncc(C(=O)Nc3cc(-c4ccc5ncn(Cc6c(Cl)cccc6Cl)c5c4)[nH]n3)cn2)CC1		111.76%	
16 nM		CN1CCC(Nc2ccc(C(=O)Nc3cc(-c4ccc5ncn(Cc6ccncc6)c5c4)[nH]n3)cc2)CC1			
3.77 nM	32.6 nM	CN1CCC(Nc2ccc(C(=O)Nc3cc(-c4ccc5ncn(Cc6ccccc6)c5c4)[nH]n3)cc2F)CC1	100.57%		
		CC(C)(C)c1cc(NC(=O)Nc2ccc(-c3cn4c(n3)sc3cc(OCCN5CCOCC5)ccc34)cc2)no1 [QUIZARTINIB]			IC50 (BaF3 [10]): 49.6 nM; IC50 (BaF3 [11]): 3.52 nM; IC50 at 72 h [12]: > 1000 nM; IC50 (BaF3 [13]): 15 nM; IC50 (BaF3 [5]): 133 nM; IC50 (BaF3 [14]): 5.41 nM; IC50 (BaF3 [15]): 27.1 nM
4.58 nM	23.6 nM	CN1CCC(Nc2ccc(C(=O)Nc3cc(-c4ccc5ncn(Cc6ccc(F)cc6)c5c4)[nH]n3)cc2)CC1	100.93%		
4.96 nM		CN1CCC(Nc2ccc(C(=O)Nc3cc(-c4ccc5ncn(-c6ccccc6)c5c4)[nH]n3)cc2)CC1			
	3.14 nM	CN(C)CCNc1ccc(C(=O)Nc2cc(-c3ccc4ncn(Cc5c(Cl)cccc5Cl)c4c3)[nH]n2)cc1		101.71%	
9.06 nM	86.2 nM	Cc1cc(NC2CCN(C)CC2)ccc1C(=O)Nc1cc(-c2ccc3ncn(Cc4ccccc4)c3c2)[nH]n1			
3.86 nM		CN1CCC(Nc2ccc(C(=O)Nc3cc(-c4ccc5ncn(CC6CCCCC6)c5c4)[nH]n3)cc2)CC1			
	2.88 nM	O=C(Nc1cc(-c2ccc3ncn(Cc4c(Cl)cccc4Cl)c3c2)[nH]n1)c1ccc(N2CC3CC2CO3)cc1 (stereo not given)		88.75%	
	30 nM	CN1CCN(c2ccc(C(=O)Nc3cc(-c4ccc5ncn(Cc6ccccc6Cl)c5c4)[nH]n3)cc2)CC1	20.29%		IC50 (BaF3 [5]): 82.8 nM
	1.1 nM	CC(=O)N1CCN(c2ccc(C(=O)Nc3cc(-c4ccc5ncn(Cc6c(Cl)cccc6Cl)c5c4)[nH]n3)cc2)CC1		103.45%	
0.94 nM	66 nM	CN1CCC(Nc2ccc(C(=O)Nc3cc(-c4ccc5ncn(Cc6cccc(Cl)c6)c5c4)[nH]n3)cc2)CC1	100.75%		
0.7 nM	33.6 nM	COc1ccccc1Cn1cnc2ccc(-c3cc(NC(=O)c4ccc(NC5CCN(C)CC5)cc4)n[nH]3)cc21	85.88%		
3.72 nM	48.2 nM	Cc1cc(C(=O)Nc2cc(-c3ccc4ncn(Cc5ccccc5)c4c3)[nH]n2)ccc1NC1CCN(C)CC1	99.36%		
	1.38 nM	CN1CCCN(c2ccc(C(=O)Nc3cc(-c4ccc5ncn(Cc6c(Cl)cccc6Cl)c5c4)[nH]n3)cc2)CC1		107.43%	
